Assay results from US9802993B2, “Method for producing a cell for protein production by treating a cell overexpressing a taurine transporter with methotrexate” (Chugai Seiyaku Kabushiki Kaisha, priority 2007, dated 2017).

Assays:
Assay type in all cases: cell-based, Chinese hamster
CHO DXB 11 s host cells = assay: Sensitivity to MTX (survival rate) of parent host cells in medium without HT; details: 10 nM or 20 nM MTX added; CHO-S-SFM II/CD-CHO mixed medium without HT; FIG. 1
Excerpt: (§1) Into CHO DXB 11 s cells serving as host cells, pHyg-TauT expression plasmids (see Referential Example 2 described later, FIG. 5) were introduced by electroporation to prepare DXB 11 s/TauT host cells in which TauT was strongly expressed. Subsequently, sensitivity to MTX was compared between the DXB 11 s/TauT host cells and the DXB 11 s host cells which were the parent strain.

DXB 11 s/TauT host cells = assay: Sensitivity to MTX (survival rate) of host cells strongly expressing TauT in medium without HT; details: 10 nM or 20 nM MTX added; CHO-S-SFM II/CD-CHO mixed medium without HT; FIG. 1
Excerpt: as §1

[1] = tested on: GC33/DXB11s, GC33/DXB11s/TauT and GC33/DXB11s/TauT/CSAD strains; assay: Sensitivity to 200 nM MTX (survival rate) of anti-glypican-3 antibody-producing strains; details: MTX raised from 20 nM to 200 nM; CHO-S-SFM II/CD-CHO mixed medium; FIG. 2
Excerpt: Then, pPur-CSAD expression plasmids (see Referential Example 4 described later, FIG. 6) were co-introduced into the above GC33/DXB11s/TauT strain to prepare a GC33/DXB11s/TauT/CSAD strain in which CSAD was strongly expressed. Subsequently, sensitivity to MTX of the GC33/DXB11s/TauT strain and the GC33/DXB11 s/TauT/C SAD strain was compared with that of the parent GC33/DXB11s strain. Because the parent strain was a strain capable of producing an antibody in which an antibody gene had been amplified to 20 copies or more (relative to the value before MTX treatment) by treatment with 20 nM MTX, the above strains could stably proliferate in the CHO-S-SFM II/CD-CHO mixed medium to which 20 nM MTX had been added.

[2] = tested on: GC33/DXB11s/TauT/CSAD strain; assay: Treatment with a high concentration of MTX: proliferation and antibody production ability; details: for amount of antibody production / number of viable cells: recovered, then cultured in 20 nM MTX, 15 mL tubes, initial 1×10^5 cells/mL, FIG. 4
Description: The GC33/DXB11s/TauT/CSAD strain, which was most MTX-resistant in Example 1, was subcultured in rotation culture for 28 days using the CHO-S-SFM II/CD-CHO mixed medium to which a high concentration of MTX (100 nM or 200 nM) had been added under the condition of 2×10^5 cells/mL in an initial stage, with the medium replaced every three to five days. […] By 14 days after that, i.e., on the 42nd day, the cells had begun to proliferate. The above two strains in which survival rates were recovered by subculture in the diluted medium (cells treated with 100 nM or 200 nM MTX) were cultured in 15 mL tubes using the CHO-S-SFM II/CD-CHO mixed medium in the presence of 20 nM MTX under the condition of 1×10^5 cells/mL in an initial stage. […] Also, the amount of antibody produced by the TauT/CSAD strain before treatment with a high concentration of MTX was 86 mg/L even when the number of viable cells grew to 19.6×10^5 cells/mL; thus, it was shown that the TauT/CSAD strain before treatment with a high concentration of MTX had the lowest production ability.

CN(Cc1cnc2nc(N)nc(N)c2n1)c1ccc(C(=O)N[C@@H](CCC(=O)O)C(=O)O)cc1 [MTX, methotrexate]
survival rate (CHO DXB 11 s host cells): a tendency of accelerated decrease in the survival rate was observed | survival rate (DXB 11 s/TauT host cells): reduction in the survival rate was suppressed at a level equivalent to the survival rate observed in the absence of MTX | survival rate [1]: the survival rates in all of the above strains decreased | cell proliferation ([2]; 100 nM or 200 nM MTX, subculture in rotation culture for 28 days, FIG. 3): no cell proliferation was observed | amount of antibody production ([2]; strain treated with 100 nM MTX): 162 mg/L | number of viable cells ([2]; strain treated with 100 nM MTX): 22.3×10^5 cells/mL | amount of antibody production ([2]; strain treated with 200 nM MTX): 144 mg/L | number of viable cells ([2]; strain treated with 200 nM MTX): 18.0×10^5 cells/mL
